Laboratory results: US10842152B2, “Isothiazolo-based bicycles, processes for their preparation and their use as herbicides and/or plant growth regulators” (Bayer CropScience Aktiengesellschaft, priority 2017, dated 2020)

Columns and labels:
[1] = system: Nilaparvata lugens; assay: Nilaparvata lugens spray test; format: in vivo; details: application rate 500 g/ha, after 4 days, rice plants
Description: (§1) Solvent: 78.0 parts by weight of acetone • • 1.5 parts by weight of dimethylformamide
(§2) Emulsifier: alkylarylpolyglycol ether
(§3) To produce a suitable preparation of active compound, 1 part by weight of active compound is mixed with the stated amount of solvents and is diluted with water, containing an emulsifier concentration of 1000 ppm, to the desired concentration. Further test concentrations are prepared by dilution with emulsifier containing water.
Rice plants (Oryza sativa) are sprayed with a preparation of the active ingredient of the desired concentration and the plants are infested with the brown planthopper (Nilaparvata lugens).
After 4 days mortality in % is determined. 100% means all planthoppers have been killed and 0% means none of the planthoppers have been killed.

[2] = system: Nezara viridula; assay: Nezara viridula spray test; format: in vivo; details: application rate 500 g/ha, after 4 days, barley plants
Description: as §1, §2
as §3, with “solvent,” for “solvents”, “and the concentrate” for “and”
Barley plants (Hordeum vulgare) infested with larvae of the southern green stink bug (Nezara viridula) are sprayed with a test solution containing the desired concentration of the active ingredient.
After 4 days mortality in % is determined. 100% means all the stink bugs have been killed; 0% means none of the stink bugs have been killed.

[3] = system: Setaria viridis; assay: Herbicidal effect post-emergence; format: in vivo; details: 320 g/ha
Method in brief: (§4)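 Greenhouse plants in sandy loam sprayed post-emergence at single-leaf stage (2-3 weeks after sowing) with WP or EC formulations plus 0.5% additive at 600 l water/ha. Damage scored visually after ca. 3 weeks versus untreated controls, 0% (as control) to 100% (dead).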

[4] = system: Viola tricolor; assay: Herbicidal effect post-emergence; format: in vivo; details: 320 g/ha
Method in brief: as §4

[5] = system: Amaranthus retroflexus; assay: Herbicidal effect post-emergence; format: in vivo; details: 320 g/ha
Method in brief: as §4

[6] = system: Alopecurus myosuroides; assay: Herbicidal effect pre-emergence; format: in vivo; details: 320 g/ha, visual grading after ca. 3 weeks vs untreated controls
Method in brief: (§5)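 Pre-emergence: WP or EC formulations applied as aqueous suspension/emulsion with 0.5% additive at 600 l water/ha onto covering soil of freshly sown pots in sandy loam. Greenhouse under optimum conditions; visual damage scored after ca. 3 weeks versus untreated controls (100% = plants died, 0% = as control).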

[7] = system: Setaria viridis; assay: Herbicidal effect pre-emergence; format: in vivo; details: 320 g/ha, visual grading after ca. 3 weeks vs untreated controls
Method in brief: as §5

[8] = system: Viola tricolor; assay: Herbicidal effect pre-emergence; format: in vivo; details: 320 g/ha, visual grading after ca. 3 weeks vs untreated controls
Method in brief: as §5

[9] = system: Amaranthus retroflexus; assay: Herbicidal effect pre-emergence; format: in vivo; details: 320 g/ha, visual grading after ca. 3 weeks vs untreated controls
Method in brief: as §5

[10] = system: Stellaria media; assay: Herbicidal effect pre-emergence; format: in vivo; details: 320 g/ha, visual grading after ca. 3 weeks vs untreated controls
Method in brief: as §5

[11] = system: MATIN; assay: Herbicidal effect pre-emergence; format: in vivo, Matricaria inodora; details: 320 g/ha, visual grading after ca. 3 weeks vs untreated controls
Text: Seeds of mono- and dicotyledonous weed plants and crop plants are sown in wood-fiber pots in sandy loam and covered with soil. The compounds according to the invention, formulated in the form of wettable powders (WP) or as emulsifiable concentrates (EC), are then applied to the surface of the covering soil as aqueous suspension or emulsion, with the addition of 0.5% of an additive, at an application rate of 600 l of water/ha (converted).
Following treatment, the pots are placed in a greenhouse and kept under optimum growth conditions for the test plants. The visual grading of the damage to the test plants is carried out after ca. 3 weeks in comparison to untreated controls (herbicidal effect in percent (%): 100% effect=plants have died off, 0% effect=as control plants).

[12] = system: Abutilon theophrasti; assay: Herbicidal effect post-emergence; format: in vivo; details: 320 g/ha, visual grading after ca. 3 weeks (Table 8)
Method in brief: as §4

[13] = system: Phaedon cochleariae; assay: Phaedon cochleariae spray test; format: in vivo; details: application rate 500 g/ha, after 7 days, Chinese cabbage leaf disks
Description: as §1, §2, §3
Chinese cabbage (Brassica pekinensis) leaf disks are sprayed with a preparation of the active ingredient of the desired concentration. Once dry, the leaf disks are infested with mustard beetle larvae (Phaedon cochleariae).
After 7 days mortality in % is determined. 100% means all beetle larvae have been killed and 0% means none of the beetle larvae have been killed.

[14] = system: MATIN; assay: Herbicidal effect post-emergence; format: in vivo, Matricaria inodora; details: 320 g/ha, visual grading after ca. 3 weeks (Table 7)
Text: Seeds of mono- and dicotyledonous weed plants and crop plants are sown in wood-fiber pots in sandy loam, covered with soil and grown in a greenhouse under controlled growth conditions. 2 to 3 weeks after sowing, the test plants are sprayed in the single-leaf stage. The compounds according to the invention, formulated in form of wettable powders (WP) or as emulsifiable concentrates (EC), are then sprayed onto the green plant parts as aqueous suspension or emulsion, with the addition of 0.5% of an additive, at an application rate of 600 l of water/ha (converted). After the test plants had been in the greenhouse for ca. 3 weeks under optimum growth conditions, the effect of the preparations is assessed visually in comparison with untreated controls (herbicidal effect in percent (%): 100% effect=plants have died off, 0% effect=as control plants).

[15] = system: Stellaria media; assay: Herbicidal effect post-emergence; format: in vivo; details: 320 g/ha, visual grading after ca. 3 weeks (Table 7)
Method in brief: as §4

[16] = system: Polygonum convolvulus (=Fallopia convolvulus); assay: Herbicidal effect post-emergence; format: in vivo; details: 320 g/ha, visual grading after ca. 3 weeks (Table 7)
Method in brief: as §4

[17] = system: Pharbitis purpurea; assay: Herbicidal effect post-emergence; format: in vivo; details: 320 g/ha, visual grading after ca. 3 weeks (Table 7)
Method in brief: as §4

[18] = visual grading after ca. 3 weeks (Table 9)
[19] = visual grading after ca. 3 weeks (Table 8)
[20] = visual grading after ca. 3 weeks (Table 7)

Row | SMILES | mortality [1] [%] | herbicidal effect ALOMY [6] [%] | herbicidal effect SETVI [7] [%] | herbicidal effect VIOTR [8] [%] | herbicidal effect AMARE [9] [%] | herbicidal effect STEME [10] [%] | herbicidal effect MATIN [11] [%] | other results
1 | COCC(=O)Nc1nsc2c(=O)n(CC3CCCCC3)cc(Br)c12 [Example I-087] | 100 | 100 | 100 | 100 | 100 | 100 | 90 | mortality [2]: 90%; herbicidal effect SETVI [3, 18]: 100%; herbicidal effect VIOTR [4, 18]: 100%; herbicidal effect AMARE [5, 18]: 100%
2 | CC(=O)Nc1nsc2c(=O)n(CC3CCCCC3)cc(Cl)c12 [Example I-084] |  | 100 | 100 | 100 | 100 | 100 | 100 | herbicidal effect SETVI [3, 19]: 100%; herbicidal effect VIOTR [4, 19]: 100%; herbicidal effect AMARE [5, 19]: 100%; herbicidal effect ABUTH [12]: 100%; mortality [13]: 83%
3 | Nc1nsc2c1CC(CO)N(CC1CCCCC1)C2=O (stereo not drawn) [Example I-007] | 100 |  | 80 | 90 | 100 |  |  | herbicidal effect MATIN [14]: 100%; herbicidal effect SETVI [3, 20]: 100%; herbicidal effect VIOTR [4, 20]: 100%; herbicidal effect AMARE [5, 20]: 100%; herbicidal effect STEME [15]: 100%; herbicidal effect POLCO [16]: 100%; herbicidal effect PHBPU [17]: 100%
